Experimental data published in patent US12648565B2, “Post-emergence herbicide” (Belvedere Foliar LLC, priority 2017, dated 2026).
Where two headings read alike, the source gives them in different places.

Legend:
[1] = tested on: all broadleaf species in the trial; assay: Trial 64: greenhouse foliar spray trial, broadleaf species; assay type: in vivo; conditions: 0.5 molarity; Days 12 through 34
Text: (§1) The majority of greenhouse trials conducted to date have been of one basic design: • 1. Samples of different species of flowering plant and grass are exposed to different formulations of the herbicide in accordance with some embodiments, prepared in a range of concentrations, in combination with potentially suitable adjuvants, and applied as an aquatic spray. Experimental plants are purchased either from a local nursery, grown from ornamental and weed seed packs, or grown from seeds of a custom blend prepared specifically for this project and listed in Table 4B. The experimental variable in a typical test is the molar mass concentration of the nutrient salt being examined. Other factors including pH, nitrogen source, and the amount and composition of surfactant or penetrant are constants within a trial except when one of these factors is itself the variable of interest in the experiment. Experiments are controlled unless irrelevant for a particular test. • 2. […] Plants are sprayed with the experimental formulation, always in late afternoon (greenhouse tests), or in early morning (field tests), are observed over as many as several weeks, and their visible state of decline scored by the same examiner on a 9 points system relying on visual effects of toxicity. […]

[2] = tested on: the grass species in the trial; assay: Trial 64: greenhouse foliar spray trial, grass species; assay type: in vivo, grasses of pasture seed blend; conditions: 0.5 molarity; Days 12 through 34
Text: as §1

[3] = tested on: Pasture Blend 1, Calendula officinalis (Common marigold), Cineraria meritima (Dusty miller) (plants 21, 7, 10); assay: Trial 13: greenhouse foliar spray trial, visual toxicity scoring; assay type: in vivo; conditions: Day 11
Text: as §1

[4] = tested on: monocotyledonous grass and liliaceae species (Pasture Blend 2, Allium cepa); assay: Trial 41: greenhouse foliar spray trial, monocots, visual toxicity scoring; assay type: in vivo, grasses of pasture seed blend; conditions: 2.0M; Plants P-2 and 2
Text: (§2) FIG. 5 depicts the average toxicity scores for the four plants tested in Trial 41, which tested an embodiment of an herbicide composition and method of using the same. The plants were numbered 22, 2, 3, and 10, corresponding to mixed monocotyledonous and dicotyledonous Pasture Blend 2 and Allium cepa (Onion “Torpedo Red”), and dicotyledonous Antirrhinum majus (Snapdragon) and Cineraria meritima (Dusty Miller, “Silver Dust” (Refer to Tables 4A and 4B for plant species identification). Both of the samples S-1 and S-2 were solutions of 2.0 Molar of ammonium sulfate having a pH of 5.5. (Refer to Tables 6A and 6B for trial solutions, details and results). Results of Trial 41: For broadleaf (dicotyledonous) species of Sample S-1 at 2.0 Molar concentration, excellent phytotoxic effects from 4.0 to 5.0 (“severe-to-fatal”) resulted from Day 3 through trial conclusion at Day 23. For monocotyledonous grass and liliaceae species of Sample S-2 at 2.0 Molar concentration, an initial moderate effect of 3.0 had decreased to 2.3 (“slight”). […] Dicots included in the Pasture 2 samples of S-1 and S-2 were all dead by Day 7. However, separate toxicity results for the monocots and dicots present in the Pasture Blend 2 mix were not recorded, and are not presented in FIG. 5.
(§3) In Trial 41, the herbicide comprised Ammonium sulfate […]; molarity 2.0; unadjusted pH approx. 5.5. […]

[5] = tested on: broadleaf (dicotyledonous) species (Antirrhinum majus, Cineraria meritima); assay: Trial 41: greenhouse foliar spray trial, dicots, visual toxicity scoring; assay type: in vivo; conditions: solutions “B”, 2.0M; Plant 3 and 10; by test conclusion at Day 23
Text: as §2, §3

weeds growing in soil = assay type: in vivo
[6] = tested on: broadleaf (dicot) samples: Brassica oleracea (Kale), Dichondra repens, Fragraia x ananassa (Strawberry); assay: Trial 46: greenhouse foliar spray trial, broadleaf (dicot) samples, visual toxicity scoring; assay type: in vivo, Fragaria x ananassa
Text: (§4) FIG. 9 is a graph showing the average toxicity scores for the […] plants tested in Trial 46, which tested an embodiment of an herbicide composition and method of using the same. The plants were numbered P2, 5, 11A, and 13, corresponding to Pasture Blend 2, Brassica oleracea (Kale), Dichondra repens, Fragraia x ananassa Strawberry (Refer to Tables 4A and 4B for plant species identification). Solutions S-1 and S-2 correspond to solutions of Monopotassium phosphate (KH2PO4) at concentrations of 2.0 molarity (Solution 1) and 1.5 molarity (Solution 2). […] The adjuvants in Trial 46 were […] silicone surfactant and methylated seed oil (MSO).
(§5) The majority of greenhouse trials conducted to date have been of one basic design: • 1. Samples of different species of flowering plant and grass are exposed to different formulations of the herbicide in accordance with some embodiments, prepared in a range of concentrations, in combination with potentially suitable adjuvants, and applied as an aquatic spray. […] Plants are sprayed with the experimental formulation, always in late afternoon (greenhouse tests), or in early morning (field tests), are observed over as many as several weeks, and their visible state of decline scored by the same examiner on a 9 points system relying on visual effects of toxicity. […]

[7] = tested on: the three grasses in P-2 (Pasture Blend 2); assay: Trial 46: greenhouse foliar spray trial, grasses, visual toxicity scoring; assay type: in vivo, Lolium perenne, Dactylis glomerata, Festuca arundinacea; conditions: Day 8 through Day 18
Text: as §4, §5

[8] = tested on: Pasture Blend 2, Allium cepa (Onion), Cineraria maritima (Dusty miller), Antirrhinum majus (Snapdragon); assay: Trial 44: greenhouse foliar spray trial, visual toxicity scoring; assay type: in vivo
Text: The majority of greenhouse trials conducted to date have been of one basic design: • 1. Samples of different species of flowering plant and grass are exposed to different formulations of the herbicide in accordance with some embodiments, prepared in a range of concentrations, in combination with potentially suitable adjuvants, and applied as an aquatic spray. Experimental plants are purchased either from a local nursery, grown from ornamental and weed seed packs, or grown from seeds of a custom blend prepared specifically for this project and listed in Table 4B. The experimental variable in a typical test is the molar mass concentration of the nutrient salt being examined. Other factors including pH, nitrogen source, and the amount and composition of surfactant or penetrant are constants within a trial except when one of these factors is itself the variable of interest in the experiment. Experiments are controlled unless irrelevant for a particular test. • 2. Standard techniques to reduce experimental error are employed including use of controls; standard spray application pressures; standardized growing conditions, growing medium, containers, and source irrigation water; and preparation and shipping of samples for laboratory analysis according to required standard laboratory protocols. • 3. Plants are sprayed with the experimental formulation, always in late afternoon (greenhouse tests), or in early morning (field tests), are observed over as many as several weeks, and their visible state of decline scored by the same examiner on a 9 points system relying on visual effects of toxicity. (Table 5.)
Scores of half-value are also used: 0, 0.5, 1.0, 1.5, 2.0, 2.5, etc. • 4. The estimated successful herbicidal effectiveness of a formulation was determined from a combination of averaged and cumulative scores of 4.0 to 5.0 observed approximately 14 days or longer after application: “All leaves and flowers if present desiccated, browned, wilted, and stems or blades lodged; no green tissue visible; no regrowth from roots visible.”
S-1 corresponds to the highest concentration of active nutrient tested, S-3 corresponds to the lowest concentration of nutrient tested and S-2 represents an intermediate level.

plants = assay: Example 13: micronutrient salt composition applied to plants as in Example 1, toxicity scoring; assay type: in vivo; conditions: after a period of 3-30 days
Protocol: Toxicity scoring is performed as described in Table 7.

SMILES: O.O.O.O.O=BOB1OB(OB=O)OB2OB([O-])OB([O-])OB(O1)O2.[Na+].[Na+] [disodium octaborate tetrahydrate]
- phytotoxic control (in words) [1]: Excellent phytotoxic control
- phytotoxic control (in words) [2]: Partial control

SMILES: O=C([O-])CC(O)(CC(=O)[O-])C(=O)[O-].[K+].[K+].[K+] [K-citrate, potassium citrate]
- average toxicity score ([3]; 1.0M): 4.0
- average toxicity score ([3]; […]): 4.3

SMILES: N.N.O=S(=O)(O)O [Ammonium sulfate]
- responsiveness (in words) [4]: considerably less responsive
- toxicity level (in words) [5]: severe-to-fatal
- herbicidal effects on the weed plants (weeds growing in soil; aqueous solution with citric acid and a surfactant, sprayed): has herbicidal effects

SMILES: O=P([O-])(O)O.[K+] [Mono-potassium phosphate]
- phytotoxic effect (in words) ([6]; 1.0M solution (so in the source), Days 8 through 18): severe-to-fatal
- phytotoxic effect (in words) ([6]; 2.0 molar test solution, Day 8 through Day 18, broadleaf samples (dicots)): Severe-to-fatal
- phytotoxic effect (in words) ([7]; 1.5 molar test solution): minimal effect
- phytotoxic effect (in words) ([7]; 2.0 molar test solution): minimal effect

SMILES: O=[N+]([O-])[O-].O=[N+]([O-])[O-].[Mg+2] [magnesium nitrate]
- herbicidal effects on the weed plants (weeds growing in soil; in vivo): has herbicidal effects

SMILES: O=S(=O)([O-])[O-].[Zn+2] [ZnSO4, Zinc Sulfate]
- average toxicity score ([8]; 1.0M, first of three values for “Days 521 through 32”): 4.3
- average toxicity score ([8]; 1.0M, second of three values for “Days 521 through 32”): 4.4
- average toxicity score ([8]; 1.0M, third of three values for “Days 521 through 32”): 4.2
- average toxicity score ([8]; 1.0 molar solution, Day 21 through Day 32): approximately 4.5
- average toxicity score ([8]; 2.0 molar solution, Day 9): 3.9

SMILES: O=[N+]([O-])[O-].O=[N+]([O-])[O-].[Ca+2] [calcium nitrate]
- herbicidal effects on the weed plants (weeds growing in soil; in vivo): has herbicidal effects

SMILES: O.O=S(=O)([O-])[O-].[Zn+2] [Zn sulfate monohydrate]
- plant death (plants): plant death is observed
